Assay results taken from ChEMBL document CHEMBL1151996, “Structure-activity relationships of anti-HIV-1 N-alkoxy- and N-allyloxy-benzimidazoles” (Bioorg Med Chem Lett, 1997).

Legend:
[1] = test system: C8166; assay: Tested against HIV-1 […] for Inhibition of viral replication by determining reduction of syncytia formation and antigen gp120 in C8166 cells, estimated by ELISA; format: functional, cell-based; details: Homo sapiens
[2] = test system: C8166; assay: Compound was evaluated for its cytotoxicity against C8166 cell line; format: functional; details: Homo sapiens, read-out: TC50 (the source's name)

| SMILES | EC50 [1] | CC50 [2] |
| --- | --- | --- |
| CCCCOn1c(CCC)nc2c(C)cccc21 | 0.5 µM | – |
| CC(C)=CCOn1c(C=C(C)C)nc2c(C)cccc21 | 10 µM | 50 µM |
| CCOn1c(C)nc2c(C)cccc21 | 8 µM | – |
| CCCCCOn1c(CCCC)nc2c(C)cccc21 | 8 µM | – |
| CCCCCCCOn1c(CCCCCC)nc2c(C)cccc21 | 40 µM | – |
| COc1ccc2nc(C=C(C)C)n(OCC=C(C)C)c2c1 | 16 µM | 80 µM |
| CC(C)=CCN1Cc2cc(Cl)cc3[nH]c(=S)n(c23)C[C@@H]1C | – | 62 µM |
| CC(C)=CCOn1c(C=C(C)C)nc2ccc(C)cc21 | 10 µM | 50 µM |
| C=CCOn1c(C=C)nc2ccc(C)cc21 | 16 µM | 20 µM |
| C=CCOn1c(C=C)nc2c(C)cccc21 | 16 µM | 16 µM |
| C=CCOn1c(C=C)nc2ccc(OC)cc21 | 80 µM | 80 µM |
| Cc1cn([C@H]2C[C@H](N=[N+]=[N-])[C@@H](CO)O2)c(=O)[nH]c1=O [ZIDOVUDINE] | – | > 1000 µM |
